Key:
[1] = biological target: T1, GppNp-loaded HIS-KRAS (G12D, aa 1-169) / cRAF RBD (Homo sapiens, UniProt P01116, G12D); assay: GTP-KRAS and cRAF interaction assay; assay type: binding; conditions: HTRF, 2 hours at 25° C.
T1 construct: GppNp-loaded HIS-KRAS (G12D, aa 1-169)
Procedure: 2. GTP-KRAS and cRAF Interaction Assay
GppNp-loaded HIS-KRAS (G12D, aa 1-169) was pre-incubated with a compound in the presence of 200 µM GTP in a 384-well plate (Greiner) for 15 min, then cRAF RBD (GST tag, aa 50-132, CreativeBioMart), MAb Anti GST-d2 (Cisbio) and MAb Anti 6HIS-Tb cryptate Gold (Cisbio) were added to the assay wells (Final concentration: 2.0 nM GppNp-loaded HIS-KRAS (G12D), 100 μM GTP, 35 nM cRAF RBD, 1 μg/mL MAb Anti GST-d2, 52.5 ng/mL MAb Anti 6HIS-Tb cryptate Gold) and incubated for 2 hours at 25° C. Wells containing same percent of DMSO served as vehicle control, and wells without KRAS served as low control. HTRF signals were read on Tecan Spark multimode microplate reader and HTRF ratios were calculated under manufacturer's instructions. The percent of activation of compounds treated wells were normalized between vehicle control and low control (% Activation=(HTRF ratioCompound treated−HTRF ratioLow control)/(HTRF ratioVehicle control−HTRF ratioLow control)*100). Then the data were analyzed either by fitting a 4-parameter logistic model or by Excel to calculate IC50 values.

[2] = biological target: T2, GDP-loaded HIS-KRAS (G12D, aa 1-169) (Homo sapiens, UniProt P01116, G12D); assay: SOS1 catalyzed nucleotide exchange assay; assay type: biochemical; conditions: SOS1 ExD, TR-FRET, 4 hours at 25° C.
T2 construct: GDP-loaded HIS-KRAS (G12D, aa 1-169)
T2 sequence (P01116 1-169 isoform P01116-2 G12D): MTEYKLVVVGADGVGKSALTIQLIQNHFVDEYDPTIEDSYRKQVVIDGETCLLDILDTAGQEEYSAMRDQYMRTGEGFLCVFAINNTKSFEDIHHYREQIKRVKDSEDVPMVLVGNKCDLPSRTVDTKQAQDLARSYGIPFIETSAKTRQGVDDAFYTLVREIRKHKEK
Procedure: 1. SOS1 Catalyzed Nucleotide Exchange Assay
GDP-loaded HIS-KRAS (G12D, aa 1-169) was pre-incubated with a compound in the presence of 10 nM GDP in a 384-well plate (Greiner) for 15 min, then purified SOS1 ExD (Flag tag, aa 564-1049), BODIPY™ FL GTP (Invitrogen) and MAb (monoclonal antibody) Anti 6HIS-Tb cryptate Gold (Cisbio) were added to the assay wells (Final concentration: 1.5 nM GDP-loaded HIS-KRAS (G12D), 5 nM GDP, 0.5 μM SOS1 ExD, 80 nM BODIPY™ FL GTP, 52.5 ng/mL MAb Anti 6HIS-Tb cryptate Gold) and incubated for 4 hours at 25° C. Wells containing same percent of DMSO served as vehicle control, and wells without KRAS served as low control. TR-FRET signals were read on Tecan Spark multimode microplate reader. The parameters were F486: Excitation 340 nm, Emission 486 nm, Lag time 100 μs, Integration time 200 μs; F515: Excitation 340 nm, Emission 515 nm, Lag time 100 μs, Integration time 200 μs. TR-FRET ratios for each individual wells were calculated by equation: TR-FRET ratio=(Signal F515/Signal F486)*10000. The percent of activation of compounds treated wells were normalized between vehicle control and low control (% Activation=(TR-FRET ratioCompound treated−TR-FRET ratioLow control)/(TR-FRET ratioVehicle control−TR-FRET ratioLow control)*100%). Then the data were analyzed either by fitting a 4-parameter logistic model or by Excel to calculate IC50 values.

AGS = assay: Cell growth inhibition assay (AGS); assay type: cell-based; conditions: Homo sapiens, 144 h, 6 days incubation, CellTiter-Glo
Procedure: (§1) 4. Cell Growth Inhibition Assay
AGS cultured in F12K medium (Gibco) containing 10% fetal bovine serum (Gibco). Cells in culture medium were plated in 96-well plates at a concentration of 500 cells/well ([…]) and allowed to attach overnight.
(§2) The next day, compounds were diluted in culture medium and added to the plates. After 6 days incubation in a 37° C./5% CO2 cell incubator, the cell viability was detected by CellTiter-Glo® Luminescent Cell Viability Assay kit (Promega). Luminescent signals were read on Tecan Spark multimode microplate reader and analyzed using a 4-parameter logistic model to calculate IC50 values.

[3] = system: AGS cells expressing KRAS G12D; assay: Phospho-ERK1/2(THR202/TYR204) HTRF assay; assay type: cell-based; conditions: Homo sapiens, 2 hours incubation, read-out: AGS p-ERK IC50
Procedure: AGS cells expressing KRAS G12D were cultured in F12K medium (Gibco) containing 10% fetal bovine serum (Gibco). The AGS cells in culture medium were seeded in 96-well plates at a concentration of 40,000 cells/well and then put in a 37° C./5% CO2 cell incubator to incubate overnight. The next day, culture medium was removed and the compound diluted in assay medium (F12K, 0.1% FBS) was added in each well. After 2 hours incubation in a 37° C./5% CO2 cell incubator, the assay medium in 96-well plates was removed, then 50 μL of 1× blocking reagent-supplemented lysis buffer (Cisbio) was added and the plates were incubated at 25° C. for 45 min with shaking. 10 μL of cell lysates from the 96-well plates were transferred to a 384-well plate (Greiner) containing 2.5 μL/well HTRF® pre-mixed antibodies (Cisbio 64AERPEH). Incubate 4 hours at 25° C. and then read HTRF signals on Tecan Spark multimode microplate reader. The data were analyzed using a 4-parameter logistic model to calculate IC50 values.

AsPC-1 = assay: Cell growth inhibition assay (AsPC-1); assay type: cell-based; conditions: Homo sapiens, ASPC1, 144 h; AsPC-1, 6 days incubation, CellTiter-Glo
Procedure: as §1
AsPC-1 cultured in RPMI-1640 medium (Gibco) containing 10% fetal bovine serum (Gibco). Cells in culture medium were plated in 96-well plates at a concentration of 1000 cells/well ([…]) and allowed to attach overnight.
as §2

T1 sequence (P01116 1-169 isoform P01116-2 G12D): as above

SMILES | IC50 [1] [nM] | IC50 [2] [nM] | IC50 (AGS) [nM] | IC50 [3] [nM] | IC50 (AsPC-1) [nM]
C#Cc1cccc2cc(O)cc(-c3ccc4c(N5CC6CCC(C5)N6)nc(OCC5(CN6CCO[C@H](C)C6)CC5)nc4c3F)c12 [Compound 68] | 131 | 14.4 | 3.26 | 4.83 | 7.8
C#Cc1c(F)ccc2cc(O)cc(-c3c(C4CC4)cc4c(N5CC6CCC(C5)N6)nc(OC[C@@]56CCCN5C[C@H](F)C6)nc4c3F)c12 [Compound 71] | 73.2 | 60 | 205 | 9.31 | 723
C#Cc1cccc2cc(O)cc(-c3ccc4c(N5CC6CCC(C5)N6)nc(OC[C@@]56CCCN5C[C@H](F)C6)nc4c3F)c12 [Compound 73] | 37 | 3.02 | 7 | 0.757 | 42
C#Cc1c(F)ccc2cc(O)cc(-c3ccc4c(N5CC6CCC(C5)N6)nc(OCC5(CN6CCCC(F)C6)CC5)nc4c3F)c12 (stereo not shown) [Compound 74] | 39.8 | 10 | 4.41 | 12.4 | 21.3
C#Cc1cccc2cc(O)cc(-c3cc4nc(OC[C@@]56CCCN5C[C@H](F)C6)nc(N5CC6CCC(C5)N6)c4cc3C)c12 [Compound 75] | 84.2 | 9.26 | 5.64 | 14.6 | 62.3
C#Cc1c(F)ccc2cc(O)cc(-c3ccc4c(N5CC6CCC(C5)N6)nc(OCC5(CN6CCC(O)CC6)CC5)nc4c3F)c12 [Compound 76] | 64.8 | 4.33 | 72.1 | 8.3 | 671
C#Cc1c(F)ccc2cc(O)cc(-c3ccc4c(N5CC6CCC(C5)N6)nc(OCC5(CN6CCC(C(=O)O)CC6)CC5)nc4c3F)c12 [Compound 77] | 74.1 | 5.11 | 1180 | 173 | > 10000
C#Cc1cccc2cc(O)cc(-c3ccc4c(N5CC6CCC(C5)N6)nc(OCC5(CN6CCSCC6)CC5)nc4c3F)c12 [Compound 78] | 99.8 | 8.8 | 4.04 | 31.6 | 30.3
C#Cc1cccc2cc(O)cc(-c3cc4nc(OC[C@@]56CCCN5C[C@H](F)C6)nc(N5CC6CCC(C5)N6)c4cc3F)c12 [Compound 79] | 130 | 4.81 | 7.75 | 6.66 | 109
C#Cc1cccc2cc(O)cc(-c3ccc4c(N5CC6CCC(C5)N6)nc(OCC5(CN6CCO[C@@H](C)C6)CC5)nc4c3F)c12 [Compound 80] | 69.4 | 3.76 | 5.26 | 3.63 | 24.1
C#Cc1cccc2cc(O)cc(-c3ccc4c(N5CC6CCC(C5)N6)nc(OC[C@@]56CCCN5C[C@H](F)C6)nc4c3Cl)c12 [Compound 81] | 225 | 9.49 | 16.2 | 13.9 | 153
C#Cc1cccc2cc(O)cc(-c3c(F)cc4c(N5CC6CCC(C5)N6)nc(OCC5(CN6CCS(=O)(=O)CC6)CC5)nc4c3F)c12 [Compound 83] | 3150 | 18 | 273 | 131 | 5090
C#Cc1cccc2cc(O)cc(-c3ccc4c(N5CC6CCC(C5)N6)nc(OCC5(CN(C)CCO)CC5)nc4c3F)c12 [Compound 86] | 97 | 20.9 | 60.3 | 7.4 | 528
Oc1cc(-c2ccc3c(N4CC5CCC(C4)N5)nc(OCC4(CN5CCOCC5)CC4)nc3c2F)c2c(Cl)cccc2c1 [Compound 88] | 148 | 16.7 | 17 | 35.7 | 153
C#Cc1cccc2cc(O)cc(-c3c(F)cc4c(N5CC6CCC(C5)N6)nc(OCC5(CN6CC[S+]([O-])CC6)CC5)nc4c3F)c12 [Compound 89] | 1940 | 20.5 | 14.9 | > 1000 | 96.6
Oc1cc(-c2c(Cl)cc3c(N4CC5CCC(C4)N5)nc(OCC45CCCN4C[C@H](F)C5)nc3c2F)c2c(Cl)cccc2c1 (stereo partly shown) [Compound 90] | 84.8 | 5.35 | 14.6 | 12.4 | 100
CCc1cccc2cc(O)cc(-c3ccc4c(N5CC6CCC(C5)N6)nc(OC[C@@]56CCCN5C[C@H](F)C6)nc4c3F)c12 [Compound 91] | 102 | 4.82 | 12.3 | 8.54 | 31.6
C#Cc1c(OC)ccc2cc(O)cc(-c3ccc4c(N5CC6CCC(C5)N6)nc(OCC5(CN6CCOCC6)CC5)nc4c3F)c12 [Compound 94] | 2520 | 5.34 | 333 | 28.5 | 1150
N#Cc1c(N)sc2c(F)ccc(-c3ccc4c(N5CC6CCC(C5)N6)nc(OCC5(CN6CCOCC6)CC5)nc4c3F)c12 [Compound 95] | 388 | 3.28 | 52.7 | > 200 | 572
C#Cc1cccc2cc(O)cc(-c3ccc4c(N5CC6CCC(C5)N6)nc(OC[C@@]56CCCN5C[C@H](F)C6)nc4c3)c12 [Compound 96] | 146 | 29.5 | 205 | 34.2 | 394
C#Cc1cccc2cc(O)cc(-c3cc4nc(OC[C@@]56CCCN5C[C@H](F)C6)nc(N5CC6CCC(C5)N6)c4cc3Cl)c12 [Compound 97] | 44.6 | 7.64 | 45.3 | 5.22 | 127
C#Cc1cccc2cc(O)cc(-c3c(C(F)(F)F)cc4c(N5CC6CCC(C5)N6)nc(OCC5(CN6CCOCC6)CC5)nc4c3F)c12 [Compound 98] | 20.1 | 1.29 | 18 | 13.7 | 69.7
C#Cc1c(F)ccc2cc(O)cc(-c3c(Cl)cc4c(C5CC6CCC(C5)N6)nc(OC[C@@]56CCCN5C[C@H](F)C6)nc4c3F)c12 (stereo partly shown) [Compound 100] | 55 | 5.93 | 5.68 | 1.71 | 33

— patent publication US20240059710A1, “KRAS G12D Inhibitors” (Jacobio Pharmaceuticals Co., Ltd., priority 2020, published 2024)
